Results taken from the SangsterLogP compilation.

Assay: method code SF, from DOI: 10.1002/jps.2600780616, PMID: 2527297
Conditions: pH 7.4

SMILES | logD
CSc1ccc2oc(N(N)CCC#N)nc2c1 | 1.5
N#CCCN(N)c1nc2cc(C(=O)c3ccccc3)ccc2o1 | 1.94
COc1ccc2oc(N(N)CCC#N)nc2c1 | 0.98
N#CCCN(N)c1nc2ccccc2o1 | 0.9
N#CCCN(N)c1nc2cc(OCc3ccccc3)ccc2o1 | 2.52
CS(=O)(=O)c1ccc2oc(N(N)CCC#N)nc2c1 | -0.58
CS(=O)c1ccc2oc(N(N)CCC#N)nc2c1 (centres undefined) | -0.53

More lines, now with the values ahead:

logD | SMILES
0.42 | N#CCCN(N)c1nc2cc(C#N)ccc2o1
1.09 | N#CCCN(N)c1nc2cc(F)ccc2o1
1.72 | N#CCCN(N)c1nc2cc(C(F)(F)F)ccc2o1
1.72 | N#CCCN(N)c1nc2cc(Cl)ccc2o1
2.82 | CC(C)(C)c1ccc2oc(N(N)CCC#N)nc2c1
1.91 | CCc1ccc2oc(N(N)CCC#N)nc2c1
1.48 | Cc1ccc2oc(N(N)CCC#N)nc2c1
